According to ChEMBL document CHEMBL1142978, “Probing the anticancer activity of nucleoside analogues: a QSAR model approach using an internally consistent training set” (J Med Chem, 2007):
Where a SMILES comes first, the peptide text is derived from it.

Experiment: Cytotoxicity against mouse L1210/0 cells after 48 hrs
Format: cell-based

Row | SMILES | IC50 (Mus musculus, L1210/0, 48 h) [µM] | IC50 (l1210/0) [µM]
1 | CO[C@@H]1OC[C@@H](OC(C)=O)[C@@H](OC(C)=O)[C@]1(F)n1ccc(=O)[nH]c1=O | 55 | 
2 | Cc1ccc(S(=O)(=O)/C=C/[C@H]2O[C@@H](n3cnc4c(N)ncnc43)[C@@H](O)[C@H]2O)cc1 | 54 | 
3 | Nc1ncnc2c1ncn2[C@@H]1O[C@H](/C=C\Br)[C@H](O)[C@@H]1O | 104 | 
4 | C=C(Br)[C@H]1O[C@@H](n2cnc3c(N)ncnc32)[C@@H](O)[C@H]1O | 25 | 
5 | Cc1ccc(-c2ncnc3c2ncn3C[C@@H]2C[C@H](CO)c3ccccc32)cc1 | 15.4 | 
6 | Nc1ncnc2c1ncn2[C@@H]1O[C@H](CO)[C@H](F)[C@@H]1O | 5.94 | 
7 | Cc1ccc(C(=O)/C=C/c2cc(=O)[nH]c(=O)n2COCCO)cc1 | 27.9 | 
8 | COc1ccccc1C(=O)/C=C/c1cc(=O)[nH]c(=O)n1COCCO | 15.2 | 
9 | COc1ccc(C(=O)/C=C/c2cc(=O)[nH]c(=O)n2COCCO)cc1 | 33.5 | 
10 | O=C(/C=C/c1cc(=O)[nH]c(=O)n1COCCO)c1ccccc1 | 43.3 | 
11 | Nc1nc(Cl)c2nnn([C@H]3CCCC[C@H]3CO)c2n1 | 95.5 | 
12 | CO[C@@H]1OC(n2cc(F)c(=O)[nH]c2=O)[C@H](OC(C)=O)[C@@H](OC(C)=O)[C@H]1F (some centres undefined) | 34 | 
13 | Nc1nc(NC2CC2)c2ncn(CCOCP(=O)(O)O)c2n1 | 10.2 | 
14 | OC[C@@H]1CCC[C@@H]1Cn1cnc2c(Cl)ncnc21 | 52.5 | 
15 | O=c1[nH]c(=O)n([C@H]2C[C@H](O)[C@@H](CO)O2)cc1/C=N/O | 15.5 | 
16 | CC1(C)[C@@H](Cn2nnc3c(Cl)nc(N)nc32)CC[C@@]1(C)CO | 44.6 | 
17 | COC1=C(OC)/C(=C/C(n2cnc3c(N)ncnc32)P(=O)(O)O)OC1=O (centres undefined) | 11.4 | 
18 | O=C1O/C(=C\Cn2cc(F)c(=O)[nH]c2=O)C(OCc2ccccc2)=C1OCc1ccccc1 | 5.1 | 
19 | O=C1O/C(=C\Cn2cc(Br)c(=O)[nH]c2=O)C(OCc2ccccc2)=C1OCc1ccccc1 | 7.5 | 
20 | O=C1C(O)=C(O)O/C1=C\Cn1cc(F)c(=O)[nH]c1=O | 5.18 | 
21 | CC1(C)[C@@H](CO)CC[C@@]1(C)Cn1cnc2c(Cl)ncnc21 | 42.8 | 
22 | Nc1ncnc2c1ncn2[C@H]1C[C@@H](O)[C@@H](C=O)O1 | 26.6 | 
23 | Nc1ncnc2c1ncn2[C@@H]1O[C@H](/C=C\Cl)[C@H](O)[C@@H]1O | 143 | 
24 | CC1(C)[C@H](CCO)C[C@@H]1n1cnc2c(Cl)nc(N)nc21 | 105 | 
25 | CCCCCC(=O)O[C@@H]1[C@H](OC(=O)CCCCC)CO[C@@H](OC)[C@@]1(F)n1ccc(=O)[nH]c1=O | 40 | 
26 | CC1(C)[C@@H](Cn2cnc3c(Cl)nc(N)nc32)CC[C@@]1(C)CO | 50 | 
27 | C#C[C@H]1O[C@@H](n2cnc3c(N)ncnc32)[C@@H](O)[C@H]1O | 1.2 | 

Row | SMILES | IC50 (Mus musculus, L1210/0, 48 h) [µM] | IC50 (l1210/0) [µM]
28 | COc1ccc(-c2ncnc3c2ncn3C[C@@H]2C[C@H](CO)c3ccccc32)cc1 | 17.6 | 
29 | Nc1nc(Cl)c2nnn(C[C@H]3CC[C@@H](CO)C3)c2n1 | 170 | 
30 | OC[C@H]1C[C@@H](Cn2cnc3c(-c4ccccc4)ncnc32)c2ccccc21 | 28.1 | 
31 | O=C1O/C(=C/Cn2cnc3ncnc(Cl)c32)C(OCc2ccccc2)=C1OCc1ccccc1 | 4.1 | 
32 | OC[C@H]1C[C@@H](Cn2cnc3c(-c4ccc(Cl)cc4)ncnc32)c2ccccc21 | 8.44 | 
33 | Nc1ncnc2c1ncn2[C@@H]1O[C@H](/C=C\I)[C@H](O)[C@@H]1O | 43 | 
34 | Cc1ccc(C(=O)/C=C/c2cc(O)nc(O)n2)cc1 | 182 | 
35 | O=C1O/C(=C\Cn2cc(Cl)c(=O)[nH]c2=O)C(OCc2ccccc2)=C1OCc1ccccc1 | 12.2 | 
36 | O=C1O/C(=C\Cn2cc(I)c(=O)[nH]c2=O)C(OCc2ccccc2)=C1OCc1ccccc1 | 7.5 | 
37 | O=C1O/C(=C\Cn2ccc(=O)[nH]c2=O)C(OCc2ccccc2)=C1OCc1ccccc1 | 12.9 | 
38 | O=C1O/C(=C\Cn2cc(C(F)(F)F)c(=O)[nH]c2=O)C(OCc2ccccc2)=C1OCc1ccccc1 | 2 | 
39 | CC(C)C[C@H](NC(=O)[C@@H]1CCCN1)C(=O)NCC(N)=O (H-Pro-Leu-Gly-NH2) | > 200 | 
40 | Nc1ncnc2c1ncn2C1OC(C(O)O)[C@H](O)[C@H]1O (single isomer, unassigned) | > 200 | 
41 | Nc1ncnc2c1ncn2[C@@H]1O[C@H](C=O)C(O)C1O (single isomer, unassigned) | 36.6 | 
42 | Nc1ncnc2c1ncn2[C@@H]1O[C@H](/C=N/O)[C@@H](O)[C@H]1O (stereo in doubt; 75) |  | 6.47
43 | Nc1ncnc2c1ncn2[C@@H]1O[C@H](/C=N/O)[C@@H](O)[C@H]1O (stereo in doubt; 82) |  | 37.5
44 | Nc1nc2c(ncn2COCCO)c(=O)[nH]1 [ACYCLOVIR] | 57.7 | 
45 | Nc1ncnc2c1ncn2CCOCP(=O)(O)O [ADEFOVIR] | 7.45 | 
46 | O=c1[nH]c(=O)n([C@H]2C[C@H](O)[C@@H](CO)O2)cc1/C=C/Br [BRIVUDINE] | 80.8 | 
47 | O=c1[nH]c(=O)n([C@H]2C[C@H](O)[C@@H](CO)O2)cc1Br [BROXURIDINE] | 84.7 | 
48 | Nc1ccn([C@@H]2O[C@H](CO)[C@@H](O)[C@@H]2O)c(=O)n1 [CYTARABINE] | 0.7 | 
49 | CCc1cn([C@H]2C[C@H](O)[C@@H](CO)O2)c(=O)[nH]c1=O [EDOXUDINE] | 33.2 | 
50 | O=c1[nH]cc(F)c(=O)[nH]1 [FLUOROURACIL] | 0.31 | 
51 | Nc1nc2c(ncn2CCOCP(=O)(O)O)c(=O)[nH]1 [GS-438] | 0.57 | 
52 | O=c1[nH]c(=O)n([C@H]2C[C@H](O)[C@@H](CO)O2)cc1I [IDOXURIDINE] | 173 | 
53 | Nc1nc(N)c2ncn(CCOCP(=O)(O)O)c2n1 [PMEDAP] | 1.73 | 
54 | O=c1[nH]c(=O)n([C@H]2C[C@H](O)[C@@H](CO)O2)cc1C(F)(F)F [TRIFLURIDINE] | 0.02 | 
